We go through 1 compound from patent US20190008810A1, “METHOD FOR PREVENTION, TREATMENT AND ALLEVIATION OF INFECTIOUS DISEASES AND DISORDERS” (REPLICON HEALTH OY, priority 2016, published 2019).

Test [1] has as its system IPA mice (conjunctival epithelium, lacrimal gland, goblet cells). Briefly: Intensified pathological attack (IPA) dry eye model in mice, Example 1a. As to conditions: for decrease in the thickening of the conjunctiva compared to relevant control: 7-day IPA, statistically significant. The test is classed as in vivo. The protocol:
In this experiment, intensified pathological attacks towards the eye epithelium is used as a disease model for intensified infectious pressure. The protection of the DGA Activation is measured by inflammatory markers. Because the conjunctival epithelium faces outside environment, the conjunctiva was chosen as one important biomarker. In the following this dry eye disease (also known as keratoconjunctivitis sicca) model experiment is called as the intensified pathological attack model or IPA-model.
All animal experiments were carried out according to the Association for Research in Vision and Ophthalmology and the National Institute of Health (NIH) guidelines for the care and use of laboratory animals. The intensified pathological attack model (IPA-model) was induced to naïve seven-to-ten-week-old C57B1/B6J mice obtained from the vivarium at the University of Eastern Finland. In the experiment 4 cohorts of mice were tested, naïve wild-type mice with IPA (n=5), and IPA mice treated topically with either vehicle (n=5) or (topical) DGA (n=5), and additionally IPA treated mice with orally administered DGA with topical vehicle treatment (n=5). IPA was induced by a combination of scopolamine and exposure to a controlled adverse environment (low humidity, high temperature and high airflow for a period of 7 days) in the IPA-mice system. More detailed treatment and administrations were as follows: Group 1: Non-treated IPA mice, Group 2: IPA mice (topical application of PBS to one eye, the contralateral eye served as control), Group 3: IPA mice topical treatment with DGA (aqueous formulation to one eye, contralateral eye served as control), Group 4: IPA mice—systemic treatment with DGA (ad libitum with chow; topical application of PBS to one eye, the contralateral eye served as control).
The DGA Activation was induced be D-glyceric acid (in its calcium salt form). In the systemic administration, the DGA was mixed into chow ad libitum at the concentration of: 1) 65 mg/kg/day for the first 4 days, and at day 5 at the concentration of 130 mg/kg/day prior the dry-eye induction; 2) thereafter the concentration was 130 mg/kg/day for the whole follow-up period of 7 days. In the topical treatment, the DGA was administered topically, as aqueous formulation in PBS. […]
Tear volume was measured for groups 3 and 4 and later comparison results for group 2 were received. […] In addition, animals were monitored daily for general health status. The lacrimal glands were embedded into paraffin, sectioned, stained and analyzed for possible pathology.

The subject of test [2] is acute bowels inflammation caused by diverticulitis. Briefly: Healing from acute inflammatory bowels disease (diverticulitis) in S4, Example 1e. Format: in vivo, human. An excerpt: In Example 1e the resolution of gastrointestinal tract infection in another subject 4 (S4) has been shown. Like in S1 also in S4 the HO-1 pathway is clearly activated by the DGA Activation. This is indirectly shown by the clear reduction of blood bilirubin in Table 1e. […] During last few years these seldom but acute inflammations in the gastrointestinal tract have been mostly in the colon and caused by inflammation in Colonic diverticula. […] The only functioning therapy for inflammatory bowels disease has been the administration of strong intravenous antibiotics.
Like other tests with unhealthy humans also this test was done because there were no other efficient substances available. When symptoms of increased bowels inflammation/diverticulosis started S4 was on holiday abroad with very difficult access to any specialized doctor not to mention any hospital. […] Simultaneously with inflammatory symptoms and maybe partially enhancing them S4 experienced constipation.
By Saturday night on the 4th day of gradually increasing acute inflammation in the colon, S4 decided to test whether DGA Activation in combination with paracetamol would assist in resolving this already rather serious inflammation. There were no other available options at that moment. This decision was also supported by confidential information received on positive results with S1 (Examples 1b and 1c).
Saturday night at 0737 pm first 260 mg of D-glyceric acid calcium salt mixed into water was taken with 2×500 mg of paracetamol. Another additional 260 mg dose of DGAcs mixed into water was taken the same night at 1020 pm. Altogether the starting dose was 9 mg/kg i.e. relatively high. High initial dose was chosen because of high level of inflammation.

Test [3] has as its system bacterial and/or virus infection of respiratory tract. Nature of the test: Healing from more severe respiratory tract infection in S1, Example 1d. Format: in vivo, human. An excerpt: Clear symptoms of bacterial and/or virus infection in S1 had started 7 days earlier. Original cause of the disease can also be acquired earlier, i.e. it can have been some hiding pathogen like tuberculosis bacteria that exploits tempting opportunities to attack the body when its defenses are weakened by some physical and/or mental stress (in this case stress could have been also positive stress from overly active days). […] On Friday, they were in an activity theme park with the family and next day, on Saturday they drove for 2 hours to a birthday party lasting to Sunday morning hours, and finally on Sunday visited museum that required 500 km of extra driving there and back. Next day, i.e. on Monday morning, the initiation of infectious condition was felt very clearly.
On Friday afternoon, fever had risen to 37.40 Celsius that is relatively high fever for S1 whose normal temperature is 36.60 Celsius (C) in rest during the day. Fever remained at 37.40 C until the night. During Saturday, the disease and related fever continued. On Sunday morning, temperature was slightly elevated (36.58 C) compared to the normal morning temperature (36.2-36.4 C). Otherwise the general condition was good on this Sunday morning but during the day fever again rose to 37.15 C by the afternoon and the symptoms in respiratory tract got more severe, resembling intensifying bronchitis or similar inflammatory condition.
By Sunday afternoon it started to seem evident that the immune system of S1 (even assisted by almost perfect rest for 3 days already) would not be able to provide a fast resolution to the potentially serious infectious condition. The Double and the Local Enforcements should be started as soon as possible. (Note: acute fever responses, presented in FIG. 5 and FIG. 11 for S1 have been observed from following administrations of D-glyceric acid in water and calcium salt dehydrate.)
At 12:41 S1 took 2×250 mg of D-glyceric acid calcium salt mixed into water to initiate the DGA Activation. At 0715 pm S1 took 2×180 mg of D-glyceric acid calcium salt mixed into water to keep the DGA Activation alive.

On to `O=C(O)[C@H](O)CO` [DGA, D-glyceric acid], for which the “number of goblet cells vs 0-controls” value in test [1] (DGA activation groups vs 0-controls) is on record as “No meaningful differences”. In test [1] (systemic (group 4) vs placebo 0-control), the “lacrimal gland pathology (inflammation)” value is reported as “reduces inflammation statistically significantly”. For the same compound, the “decrease in the thickening of the conjunctiva compared to relevant control” value is on record as approximately 20% in test [1] (systemic, mixed with chow 130 mg/kg/day) and approximately 20% in test [1] (topical eye drops 30 μg/ml, 5 μL 4× daily). In addition, the “time needed to turn the inflammatory process clearly down” value in test [2] (S4) is approximately 36 h. Besides, the defecation result in test [2] (S4, Sunday 0910 am, morning after 2×260 mg DGAcs with 2×500 mg paracetamol) is “could defecate (almost normally) for the first time in 3 days”. Besides, in test [2] (S4, Wednesday morning, after 240 mg twice a day), the pains in bowels result is “All the pains in bowels had disappeared”. Further, in test [3] (S1, Monday), the “body temperature, highest during workday” value is recorded as 36.87 C. For the same compound, the body temperature in test [3] (S1, Monday 0630 am) is 36.38 C; in test [3] (S1, Monday 0900 pm), 36.71 C; in test [3] (S1, Monday 1036 pm), 36.68 C; in test [3] (S1, Sunday 07:10 pm, before second dose), 36.60 C; in test [3] (S1, Sunday 0648 pm after 2×250 mg at 12:41, 37.15 C before) it was 36.58 C; in test [3] (S1, Sunday 0652 pm), 36.52 C. For the same compound, the body temperature was 36.60 C in test [3] (S1, Sunday 1015 pm) and 36.61 C in test [3] (S1, Sunday 1035 pm).
